Where two headings read alike, the source gives them in different places.
Tests used:
[1] = rat, in vivo; for Concentration of prednisolone in the content, The first half segment of Small intestine / Concentration of prednisolone in the content, The last half segment of Small intestine: male, Sprague-Dawley (SD)
Description: (§2) For the experiment animals of Group 1, Group 2 and Group 3, at each time point of 30 min, 1 h, 2 h, 3 h, 4 h, 5 h, 6 h, 8 h, and 10 h after the administration, 4 animals were randomly selected and sacrificed. The blood samples were collected, and the contents in the stomach and various segments of the intestine tract (the first half segment of the small intestine, the last half segment of the small intestine, the first third segment of the colon (including cecum), and the last two thirds segment of the colon) were weighed. […] 4 animals of Group 4 were sacrificed at the time point of 10 h. The blood samples and the contents in various segments of the gastrointestinal tract were collected as blank control.

[2] = Test on stability in mediums in vitro (buffer solutions with different pH, simulated intestinal fluid, simulated gastric fluid); type: physicochemical
Description: At 37° C., Compound 17 was incubated in different mediums (buffer solutions with different pH, a simulated intestinal fluid containing pancreatin, and simulated gastric fluid containing pepsin).
(§1) Other typical example compounds were tested for stability according to the above method, and the test results are shown in Table 8 below.

[3] = Systemic pharmacokinetics (plasma) after oral administration to SD rats; type: in vivo
Description: as §2

[4] = system: ulcerative colitis models of Wistar rat induced by enema with trinitrobenzenesulfonic acid (TNBS); experiment: Pharmacodynamic effect of intragastric administration in ulcerative colitis models of Wistar rat induced by TNBS enema; type: in vivo; conditions: Wistar rats; for colon coefficient on Day 8 after modeling compared with the model control group / histopathological score of colon on Day 8 after modeling compared with the model control group / body weight change (increase) on Day 8 after modeling as compared to the model group: intragastric qd × 7, Compound 1 1.91 mg/kg; for colon coefficient on Day 8 after modeling compared with the model control group: prednisolone 1 mg/kg (FIG. 6); for histopathological score of colon on Day 8 after modeling compared with the model control group: prednisolone 1 mg/kg (FIG. 7); for body weight change (increase) on Day 8 after modeling as compared to the model group: prednisolone 1 mg/kg, only Compound 1 vs model significant (FIG. 5)
Description: Comparison research among therapeutic effects of Compound 1 and a commercial formulation of prednisolone (prednisolone tablet, produced by Wuhan Yuancheng Co-Creation Technology Co., Ltd.) on ulcerative colitis models of Wistar rats after intragastric administration was carried out to further evaluate the improvement in main therapeutic effect indexes of the intragastric perfusion therapy of Compound 1 and compare it with that of treatment group with equivalent moles of a commercial formulation of prednisolone, thereby providing pharmacodynamic support for further development of Compound 1.
According to the experiment, 40 male Wistar rats (180-220 grams) were purchased, and randomly divided into four groups (i.e., physiological saline control group, model control group, prednisolone group and Compound 1 group), and there were 10 animals in each group. Except the physiological saline control group, ulcerative colitis animal models were produced by once enema administration of a mixed solution of 2.5% TNBS-50% ethanol (containing 80 mg/kg TNBS) to experiment animals in other three groups in an amount of 3.2 ml/kg. For the physiological control group, physiological saline was once administered by enema in an amount of 3.2 ml/kg. At 24 h after the modeling administration, the corresponding solvent control or therapeutic drugs were administered by enema depending on animal groups (qd×7d (one dose per day, for 7 days)), and detailed grouping and administration information is as shown in Table 14 below.
During the investigation, the main indexes to be observed include: death of animals, clinical observation, body weight, colon coefficient, histopathological examination of animals, and so on. For each experiment group, on Day 8 after modeling, animals were sacrificed. Colon tissues were collected to calculate the colon coefficient (colon coefficient=colon weight (g)/animal body weight (g) * 100%).

[5] = system: colon flora; experiment: Stability in the presence of colon flora (content in colon of rat); type: in vitro ADME, SD rat; conditions: male, Sprague-Dawley (SD), rat, 1 h, pH 6.8
Description: A phosphate buffer solution with a pH of 7.0 was formulated, and then CO2 was introduced to the solution to adjust the pH to 6.8. Then, the content in colon of a male SD rat (body weight: 180-220 g) was placed in a water bath at 37° C., and added into the phosphate buffer solution with a pH of 6.8 as prepared above under the protection of N2 to a concentration of 20% (w/v). The buffer solution was kept in an oxygen-free environment. Then, the test Compound 17 was added to the buffer solution, and the solution was stirred uniformly.
Supernatant was analyzed with HPLC, where the amount of each ingredient was calculated by normalization.
Note: in the above table, “T14.148 (%)” represents the percentage of peak area of the material with a retention time of 14.148 min “T14.713 (%)” represents the percentage of peak area of the material with a retention time of 14.713 min. “T16.392 (%)” represents the percentage of peak area of the material with a retention time of 16.392 min. “T22.624 (%)” represents the percentage of peak area of the material with a retention time of 22.624 min.
as §1

[6] = Simulated intestinal fluid (containing pancreatin) (pH 6.8) (8 h)
[7] = intragastric administration, FIG. 3

C[C@]12C=CC(=O)C=C1CC[C@@H]1[C@@H]2[C@@H](O)C[C@@]2(C)[C@H]1CC[C@]2(O)C(=O)COC1(CO)O[C@H](CO)[C@@H](O[C@@H]2O[C@H](CO)[C@H](O)[C@H](O)[C@H]2O)[C@@H]1O (stereo partly drawn) [Compound 1, (11β)-11,17-dihydroxyl-21-{[4-O-(β-D-galactopyranosyl)-D-fructofuranosyl]oxy}pregna-1,4-diene-3,20-dione]
passage through the gastrointestinal tract of a mammal (absorption and hydrolysis) [1]: without being absorbed significantly by the gastrointestinal tract and hydrolyzed significantly by endogenous enzymes of a mammal host
factor of increase of maximum concentrations (Cmax) of local prednisolone in the cecum and colon sites as compared to prednisolone group ([1]; po): 65-360
total exposure (AUC) of local prednisolone in the cecum and colon sites compared with prednisolone group ([1]; po): much higher than the prednisolone (original form) group
Percentage of the example compound remaining (Composition, %) [2, 6]: 99.0%
Percentage of the released active drug (prednisolone, dexamethasone, budesonide, apremilast or prucalopride) (Composition, %) [2, 6]: 0.2%
Percentage of the example compound remaining (Composition, %) ([2]; Water (pH 1.2) (2 h)): 30.4%
Percentage of the released active drug (prednisolone, dexamethasone, budesonide, apremilast or prucalopride) (Composition, %) ([2]; Water (pH 1.2) (2 h)): 67.2%
plasma prednisolone Cmax as compared to free prednisolone group [3, 7]: very low
plasma prednisolone time to peak as compared to free prednisolone group [3, 7]: significantly delayed
concentration at 0.5 h ([3]; male, Sprague-Dawley, rat, plasma, oral, 9.55 mg/kg intragastric, 0.5 h (only time point with detection), read-out: concentration of Compound 1 in the rat plasma): 10.4 ng/mL
day after modeling on which the body weight began to rise ([4]; TNBS model, intragastric qd × 7, 1.91 mg/kg): 4 days
colon coefficient on Day 8 after modeling compared with the model control group [4]: significantly lower than that for the model control group (p<0.05)
histopathological score of colon on Day 8 after modeling compared with the model control group [4]: significantly lower than that for the model control group (p<0.05)
body weight change (increase) on Day 8 after modeling as compared to the model group [4]: statistically significant
Percentage of the example compound remaining (Composition, %) [5]: 22.1%
Percentage of the released active drug (prednisolone, dexamethasone, budesonide, apremilast or prucalopride) (Composition, %) [5]: 39.7%

C[C@]12C=CC(=O)C=C1CC[C@@H]1[C@@H]2[C@@H](O)C[C@@]2(C)[C@H]1CC[C@]2(O)C(=O)CO [Prednisolone, prednisolone]
Concentration of prednisolone in the content, The first half segment of Small intestine ([1]; 0.5 h): 16.66 ± 2.89 nmol/g
Concentration of prednisolone in the content, The last half segment of Small intestine ([1]; 0.5 h): 16.27 ± 3.34 nmol/g
Concentration of prednisolone in the content, The first half segment of Small intestine ([1]; 1 h): 19.20 ± 3.44 nmol/g
Concentration of prednisolone in the content, The last half segment of Small intestine ([1]; 2 h): 19.81 ± 2.77 nmol/g
Concentration of prednisolone in the content, The first half segment of Small intestine ([1]; 3 h): 21.16 ± 2.18 nmol/g
Concentration of prednisolone in the content, The last half segment of Small intestine ([1]; 3 h): 20.47 ± 3.08 nmol/g
Concentration of prednisolone in the content, The first half segment of Small intestine ([1]; 4 h): 17.38 ± 3.04 nmol/g
Concentration of prednisolone in the content, The last half segment of Small intestine ([1]; 4 h): 13.27 ± 2.09 nmol/g
Concentration of prednisolone in the content, The first half segment of Small intestine ([1]; 5 h): 7.34 ± 1.38 nmol/g
Concentration of prednisolone in the content, The last half segment of Small intestine ([1]; 5 h): 6.94 ± 1.35 nmol/g
Concentration of prednisolone in the content, The first half segment of Small intestine ([1]; 6 h): 0.36 ± 0.05 nmol/g
Concentration of prednisolone in the content, The last half segment of Small intestine ([1]; 6 h): 0.32 ± 0.06 nmol/g
Concentration of prednisolone in the content, The last half segment of Small intestine ([1]; 8 h): 0.04 ± 0.01 nmol/g
Cmax value of prednisolone in the content, Stomach ([1]; po, 5 mg/kg): 370.53 nmol/g
Cmax value of prednisolone in the content, The first half segment of Small intestine ([1]; po, 5 mg/kg): 51.92 nmol/g
Cmax value of prednisolone in the content, The first third segment (including cecum) of Colon ([1]; po, 5 mg/kg): 0.70 nmol/g
Cmax value of prednisolone in the content, The last half segment of Small intestine ([1]; po, 5 mg/kg): 22.05 nmol/g
Cmax value of prednisolone in the content, The last two thirds segment of Colon ([1]; po, 5 mg/kg): 0.14 nmol/g
colon coefficient on Day 8 after modeling compared with the model control group [4]: not statistically significant
histopathological score of colon on Day 8 after modeling compared with the model control group [4]: not statistically significant
body weight change (increase) on Day 8 after modeling as compared to the model group [4]: higher than that for the model group
